Experimental data from patent US9580707B2, “Peptide antimicrobials” (Wayne State University, priority 2010, dated 2017).

Tested on: E. coli DH5α
Experiment: Induced growth curves of E. coli expressing peptide-PhoA fusions in the periplasm (periplasmic in vivo display)
Assay type: cell-based
Details: peptide expressed as PhoA fusion in the periplasm, arabinose induction, OD600
Procedure: Numerous periplasmic screens have been performed for the identification of bacteriolytic peptides, encompassing more than 90 million clones. Selected clones have been sequenced and confirmed by induced growth curves, confirming that the disclosed bacteriolytic screen enriches plasmid preparations for peptides that elicit cell lysis. For example, an isolated clone is grown in fresh LB medium to early log phase. Arabinose is added to induced peptide-PhoA fusion expression, and the peptide's effect on growth is observed by measuring the cell density of the culture. Many clones of differing growth phenotypes were analyzed. Bacteriolytic peptides have predominated the extracted clones, which is to be expected given that the bacteriolytic screen was used. Peptides were recovered that had either a bacteriostatic or bactericidal effect and others that have a weakly inhibitory effect as they reduce the rate of E. coli's growth […] and may find use as precursors to actual peptide hits.
Phenotype definitions: Bacteriolytic: OD600 of culture decreases in value, correlating with a reduction in the concentration of cells. Bactriostatic/bactericidal: OD600 of culture flatlines, correlating with a complete stop in the growth of the cells and constant cell density. Weakly inhibitory OD600<0.7: Replication is slowed but not stopped. Final OD600 as culture enters stationary phase is less than 0.7. Weakly inhibitory OD600>0.7: Similar to the above, only final OD600 exceeds 0.7. Peptides have only a minor effect on growth. Non-inhibitory: No growth effect was observed versus the expression of PhoA with no peptide at its N-terminus.
After replica plating, clones were grown in LB+30 μg/ml kanamycin. When OD600˜0.15, arabinose was added to a final concentration of 0.2%. The OD600 of the culture was then measured every 30 minutes to see the effect of peptide-PhoA fusion expression on the cell. […]

Substance	antimicrobial activity / growth phenotype after induction
EOD037 Pro+: EOD037 in which an alanine was replaced with a proline (IRWLPRRWRRTF; Antimicrobial peptide EOD037Pro+)	loss of antimicrobial activity
EOD037: inhibitory peptide from the early onset degenerate peptide library (IRWLARRWRRTF; Antimicrobial peptide EOD037)	inhibitory
EOD084: non-inhibitory, proline-containing peptide from the early onset degenerate peptide library (FMRLPRWWRRMQ; Antimicrobial peptide EOD084)	non-inhibitory
